According to patent US20240166681A1, “3'3' CYCLIC DINUCLEOTIDES CONTAINING ISONUCLEOTIDIC UNITS” (INSTITUTE OF ORGANIC CHEMISTRY AND BIOCHEMISTRY AS CR, V. …, priority 2021, published 2024):

Target: WT STING (Homo sapiens, UniProt Q86WV6, H232R)
Test: Digitonin assay using 293T wtSTING-FL reporter cells
Assay type: cell-based
Set-up: host or cells: 293T (ATCC CRL-3216), stably transfected
Settings: 293T wtSTING-FL cells, digitonin buffer 30 min, then 5 h, ISRE firefly luciferase reporter
Description: […] […] (SEQ ID NO:2) containing four interferon-sensitive response elements (ISRE) were synthesized by Sigma Aldrich (Czech Republic, Prague). The oligonucleotides were mixed in equal molar amounts, hybridized, and cleaved by restriction endonucleases HindIII (cat. #.R0104S, NEB, Ipswich, USA) and BglII (cat. #R0144S, NEB, Ipswich, USA). Ultimately, they were ligated into plasmid pGL4.27 (cat. #E6651, Promega, Madison, USA) linearized with the same enzymes. As result the sequence with four ISRE sites was placed upstream of the minimum promoter of firefly luciferase reporter gene.
293T cells (cat. #CRL-3216, ATCC, Manassas, USA) were seeded a day before transfection at density 125,000 cells per cm^2 onto poly-D-lysine (cat. #P6407, Sigma Aldrich, Czech Republic) coated six well plates in antibiotic free DMEM with high glucose (cat. #D5796, Sigma Aldrich, Czech Republic) supplemented with 10% heat inactivated FBS (cat. #S1520, Biowest, Riverside, USA). On the day of transfection, 2.5 μg of the plasmid pUNO1-hSTING-WT (cat. #punol-hstingwt, InvivoGen, San Diego, USA,) encoding human wild type STING (WT STING) was diluted in 125 μL OptiMEM medium (cat. #31985062, ThermoFisher, Waltham, USA) and mixed with 125 μL of the same medium containing 12.5 μL of Lipofectamine 2000 (cat. #11668019, ThermoFisher, Waltham, USA). After 5 minutes incubation at room temperature (RT), 250 μL of the mixture was added dropwise to the cells in one well. Cells were incubated 36 hours at 37° C. with 5% CO2, and then detached with 0.05% Trypsin and 0.22 g/L EDTA (both cat. #L0941, Biowest, Riverside, USA).
Transfected cells were seeded onto poly-D-lysine coated six well plates at density 50,000 cells per 1 cm^2 in DMEM medium with high glucose containing 10% heat inactivated FBS, 30 μg/mL blasticidin (cat. #ant-b1-05, InvivoGen, San Diego, USA), 0.06 mg/ml Penicillin G and 0.1 mg/ml Streptomycin Sulfate (both cat. #. L0018, Biowest, Riverside, USA). The medium was replenished every 3-4 days until visible colonies of cells resistant to blasticidin were formed.
Blasticidin resistant cells stably expressing WT STING were further transfected with […] plasmid following the same procedure as described above. The transfected cells were selected for the resistance to 300 μg/mL hygromycin (cat. #. 10687010, ThermoFisher, Waltham, USA) in DMEM with high glucose containing 10% heat inactivated FBS, 30μg/mL blasticidin, 0.06 mg/ml Penicillin G and 0.1 mg/ml Streptomycin Sulfate. Homogeneous culture of stably double transfected cells was prepared by limiting dilution of cells in 96 well plates and wells with cells were selected that originated from a single cell. These cells were expanded, and expression of WT STING was confirmed by western blot using monoclonal mouse anti STING antibodies (cat. #. MAB7169, 1:1000 dilution; […]. Genomic DNA from the transfected cells was amplified with primers pUNO1_Seq_F ([…]) (SEQ ID NO:3) and pUNO1_Seq_R ([…]) (SEQ ID NO:4) that were complementary to pUNO1 plasmid and the presence of WT STING gene in the transfected cells was confirmed by DNA sequencing.
293T wtSTING-FL cells were seeded at density of 250,000 cells per cm^2 onto 96 well poly-D-lysine coated plates in 100 μl DMEM with high glucose supplemented with 10% heat inactivated FBS. The medium was removed next day and three fold serial dilutions of compounds in Digitonin buffer containing 50 mmol·l^−1 HEPES (cat. #H3375, Sigma Aldrich, Czech Republic) pH 7.0, 100 mmol·l^−1 KCl, 3 mmol·l^−1 MgCl2, 0.1 mmol.·l^−1 DTT (cat. #D0632, Sigma Aldrich, Czech Republic), 85 mmol·l^−1 Sucrose (cat. #S7903, Sigma Aldrich, Czech Republic), 0.2% BSA (cat. #A2153, Sigma Aldrich, Czech Republic), 1 mmol·l^−1 ATP (cat. #A1852, Sigma Aldrich, Czech Republic), 0.1 mmol·l^−1 GTP (cat. #G8877, Sigma Aldrich, Czech Republic), and 10 μg/mL Digitonin A (cat. #D141, Sigma Aldrich, Czech Republic) were added to the cells. […]

Sequence of WT STING (Q86WV6 whole entry H232R): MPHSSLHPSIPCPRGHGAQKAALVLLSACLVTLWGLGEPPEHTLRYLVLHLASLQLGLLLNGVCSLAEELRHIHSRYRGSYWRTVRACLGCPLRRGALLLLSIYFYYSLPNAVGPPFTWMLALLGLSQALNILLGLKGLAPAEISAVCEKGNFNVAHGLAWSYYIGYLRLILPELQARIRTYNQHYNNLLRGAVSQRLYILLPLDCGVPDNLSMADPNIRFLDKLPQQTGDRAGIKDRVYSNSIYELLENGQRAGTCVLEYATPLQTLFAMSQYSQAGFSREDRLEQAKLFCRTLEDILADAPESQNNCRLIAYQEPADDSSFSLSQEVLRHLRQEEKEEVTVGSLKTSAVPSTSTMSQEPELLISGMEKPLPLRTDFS

Row | Compound | EC50
1 | Nc1nc2c(ncn2[C@@H]2O[C@@H]3COP(=O)(O)O[C@H]4[C@H](n5cnc6c(N)ncnc65)CO[C@@H]4COP(=O)(O)O[C@H]3[C@H]2F)c(=O)[nH]1 [Compound 24, (1S,6R,8R,9R,10R,15R,18R)-8-(2-amino-6-oxo-6,9-dihydro-1H-purin-9-yl)-18-(6-amino-9H-purin-9-yl)-9-fluoro-3,12-dihydroxy-2,4,7,11,13,16-hexaoxa-3λ^5,12λ^5-diphosphatricyclo[13.3.0.0^6,10]octadecane-3,12-dione] | 30 nM
2 | Nc1ncnc2c1ncn2[C@@H]1CO[C@@H]2COP(=O)(O)O[C@H]3[C@@H](F)[C@H](n4cnc5c(N)ncnc54)O[C@@H]3COP(=O)(O)O[C@@H]12 [Compound 28, (1S,6R,8R,9R,10R,15R,18R)-8,18-bis(6-amino-9H-purin-9-yl)-9-fluoro-3,12-dihydroxy-2,4,7,11,13,16-hexaoxa-3λ^5,12λ^5-diphosphatricyclo[13.3.0.0^6,10]octadecane-3,12-dione] | 20 nM
3 | Nc1ncnc2c1ncn2[C@@H]1CC[C@@H]2COP(=O)(O)O[C@H]3[C@@H](F)[C@H](n4cnc5c(N)ncnc54)O[C@@H]3COP(=O)(O)O[C@H]21 [Compound 34, (1R,6R,8R,9R,10R,15R,18R)-8,18-bis(6-amino-9H-purin-9-yl)-9-fluoro-3,12-dihydroxy-2,4,7,11,13-pentaoxa-3λ^5,12λ^5-diphosphatricyclo[13.3.0.0^6,10]octadecane-3,12-dione] | 450 nM
4 | Nc1ncnc2c1ncn2[C@@H]1CO[C@@H]2COP(=O)(O)O[C@H]3C[C@H](n4cnc5c(N)ncnc54)O[C@@H]3COP(=O)(O)O[C@@H]12 [Compound 50, (1S,6R,8R,10S,15R,18R)-8,18-bis(6-amino-9H-purin-9-yl)-3,12-dihydroxy-2,4,7,11,13,16-hexaoxa-3λ^5,12λ^5-diphosphatricyclo[13.3.0.0^6,10]octadecane-3,12-dione] | 280 nM
5 | Nc1nc2c(ncn2[C@@H]2CO[C@@H]3COP(=O)(O)O[C@H]4[C@@H](F)[C@H](n5cnc6c(N)ncnc65)O[C@@H]4COP(=O)(O)O[C@@H]23)c(=O)[nH]1 [Compound 51, (1S,6R,8R,9R,10R,15R,18R)-18-(2-amino-6-oxo-6,9-dihydro-1H-purin-9-yl)-8-(6-amino-9H-purin-9-yl)-9-fluoro-3,12-dihydroxy-2,4,7,11,13,16-hexaoxa-3λ^5,12λ^5-diphosphatricyclo[13.3.0.0^6,10]octadecane-3,12-dione] | 80 nM
6 | Nc1nc2c(ncn2[C@@H]2CO[C@@H]3COP(=O)(O)O[C@H]4[C@H](n5cnc6c(N)ncnc65)CO[C@@H]4COP(=O)(O)O[C@@H]23)c(=O)[nH]1 [Compound 52, (1S,6R,9R,10S,15R,18R)-9-(2-amino-6-oxo-6,9-dihydro-1H-purin-9-yl)-18-(6-amino-9H-purin-9-yl)-3,12-dihydroxy-2,4,7,11,13,16-hexaoxa-3λ^5,12λ^5-diphosphatricyclo[13.3.0.0^6,10]octadecane-3,12-dione] | 1350 nM
7 | Nc1nc2c(ncn2[C@@H]2CO[C@@H]3COP(=O)(O)O[C@H]4C[C@H](n5cnc6c(N)ncnc65)O[C@@H]4COP(=O)(O)O[C@@H]23)c(=O)[nH]1 [Compound 53, (1S,6R,8R,10S,15R,18R)-18-(2-amino-6-oxo-6,9-dihydro-1H-purin-9-yl)-8-(6-amino-9H-purin-9-yl)-3,12-dihydroxy-2,4,7,11,13,16-hexaoxa-3λ^5,12λ^5-diphosphatricyclo[13.3.0.0^6,10]octadecane-3,12-dione] | 280 nM
8 | Nc1ncnc2c1ncn2[C@@H]1CO[C@@H]2COP(=O)(S)O[C@H]3[C@@H](F)[C@H](n4cnc5c(N)ncnc54)O[C@@H]3COP(=O)(S)O[C@@H]12 (stereo partly drawn) [Compound 54, (1S,6R,8R,9R,10R,15R,18R)-8,18-bis(6-amino-9H-purin-9-yl)-9-fluoro-3,12-disulfanyl-2,4,7,11,13,16-hexaoxa-3λ^5,12λ^5-diphosphatricyclo[13.3.0.0^6,10]octadecane-3,12-dione] | 10 nM
9 | Nc1ncnc2c1ncn2[C@@H]1CO[C@@H]2COP(=O)(S)O[C@H]3[C@@H](F)[C@H](n4cnc5c(N)ncnc54)O[C@@H]3COP(=O)(S)O[C@@H]12 (stereo partly drawn) [Compound 55, (1S,6R,8R,9R,10R,15R,18R)-8,18-bis(6-amino-9H-purin-9-yl)-9-fluoro-3,12-disulfanyl-2,4,7,11,13,16-hexaoxa-3λ^5,12λ^5-diphosphatricyclo[13.3.0.0^6,10]octadecane-3,12-dione] | 10 nM
